Assay results published in publication PMC12693416, “From Lipid Regulation to Neuroprotection: Multitarget (Benzo)thiazine Derivatives as Promising Leads” (Molecules, 2025).
Read-outs that look alike come from different tables or passages of the source.

Legend:
[1] = Iron chelation (ferrozine assay); settings: for % of Fe(II) Chelation (at 100 μM): 100 μM compound, Fe2+ 20 μM
Experimental: […] The reaction was initiated with the addition of a 100 μM aqueous ferrozine solution, which chelates iron ions, resulting in an increased maximum absorbance at 562 nm. After incubation at 37 °C for 10 min, the mixture’s absorbance is measured at 562/700 nm. Each value is expressed as the mean of 3 tests per sample [46].

[2] = Radical scavenging of DPPH; settings: DPPH 200 μM, 30 min incubation
Experimental: Compounds, dissolved in absolute methanol, at concentrations of 25–400 μM, were added to an equal volume of a methanolic solution of DPPH (final concentration 200 μM) at room temperature (22 ± 2 °C).

[3] = test system: mouse liver microsomal lipid peroxidation; assay: Inhibition of mouse liver microsomal lipid peroxidation (LP); settings: for LP % Inhibition at 100 μΜ: 100 μM compound; for IC50: read-out: LP IC50 Value, 45 min incubation
[4] = biological target: T1, acetylcholinesterase from eel (Electrophorus electricus, UniProt O42275); assay: Acetylcholinesterase (AChE) inhibition (Ellman); type: biochemical; settings: read-out: AChE Inhibition (%), 300 μM compound
T1 construct: purchased Sigma
T1 sequence (O42275 24-633): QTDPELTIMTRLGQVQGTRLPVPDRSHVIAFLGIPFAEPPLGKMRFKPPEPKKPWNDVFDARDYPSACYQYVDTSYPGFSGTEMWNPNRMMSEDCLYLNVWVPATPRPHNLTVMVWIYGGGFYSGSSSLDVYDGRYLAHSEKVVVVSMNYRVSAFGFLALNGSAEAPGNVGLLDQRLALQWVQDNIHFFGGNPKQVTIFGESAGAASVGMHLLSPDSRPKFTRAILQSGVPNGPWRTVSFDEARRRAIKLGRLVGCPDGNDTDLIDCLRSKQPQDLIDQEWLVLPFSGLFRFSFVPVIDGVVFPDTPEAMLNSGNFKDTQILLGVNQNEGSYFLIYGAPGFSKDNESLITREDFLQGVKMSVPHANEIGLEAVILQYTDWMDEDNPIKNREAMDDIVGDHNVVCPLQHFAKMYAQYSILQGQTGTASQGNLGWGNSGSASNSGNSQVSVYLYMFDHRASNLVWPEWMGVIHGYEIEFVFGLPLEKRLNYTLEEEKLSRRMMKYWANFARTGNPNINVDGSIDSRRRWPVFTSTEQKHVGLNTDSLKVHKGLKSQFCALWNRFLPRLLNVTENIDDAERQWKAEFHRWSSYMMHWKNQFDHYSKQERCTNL
Experimental: (0.31 mM) in phosphate buffer with pH = 7. The incubation mixture is monitored for 7 min at 37 °C.

[5] = test system: hyperlipidaemic mice; assay: Tyloxapol (Triton WR 1339)-induced hyperlipidemia, plasma lipid parameters; type: in vivo; settings: i.p. 84 μmol/kg; for change in vivo at 84 µmol/kg / inhibition in vivo at 84 µmol/kg: Mus musculus, ip, 24 h
Experimental: An aqueous solution of Triton WR 1339 was given i.p. to mice (400 mg/kg of body weight) and one hour later the test compounds (84 μmol/kg of body weight), dissolved in saline or saline only, were administered i.p. After 24 h, blood was taken from the aorta/heart and used for the determination of plasma total cholesterol (TC), triglyceride (TG) levels, and high-density lipoprotein (HDL) levels, using commercially available kits (Biosis Cholesterol Enzymatic/PAP, Biosis Triglycerides GPO/PAP, and Biosis HDL Phosphovolframic, Biosis, Athens Greece). Levels of plasma lipids were determined in duplicate while values presented are the mean from 8 animals (per compound). The levels of low-density lipoprotein (LDL) are calculated according to the equation: LDL (mg/dL) = 3/4 * (TC-HDL).

[6] = test system: carrageenan-induced mouse paw edema; assay: Carrageenan-induced mouse paw edema; type: in vivo, C57BL/6 mice; settings: ip, 3.5 h, i.p. 0.30 mmol/kg, female C57BL/6, 3.5 h after carrageenan, read-out: % Edema (decrease of carrageenan-induced paw edema vs control)
Experimental: For the in vivo anti-inflammatory activity, C57BL/6 mice were injected with 0.025 mL carrageenan (2% w/v solution in saline) i.d. into the right hind paw, the left paw serving as control. The test compounds dissolved in saline (300 μmol/kg) were given i.p. right after the carrageenan injection, and 3.5 h later the produced edema was estimated as paw weight increase. Results are expressed as percentage of reduction in paw-edema and are the mean of 6 animals (per compound).

[7] = biological target: soybean lipoxygenase (LOX-3); assay: Soybean lipoxygenase (LOX-3) inhibition; type: biochemical; settings: after 5 min of incubation; sodium linoleate 100 μM, pH 9.0
Experimental: Lipoxygenase (LOX) inhibitory activity was determined using soybean lipoxygenase (250 U/mL) and sodium linoleate (100 μM) as substrate, in Tris–HCl buffer pH 9.0.

[8] = plasma, vs tyloxapol control, read-out: % HDL Increase
[9] = LDL calculated as 3/4*(TC-HDL), read-out: % LDL Decrease
[10] = plasma, vs tyloxapol control, read-out: % Total Cholesterol (TC) Reduction
[11] = plasma, vs tyloxapol control, read-out: % Triglycerides (TG) Reduction
[12] = ratio calculated, read-out: % HDL/LDL Increase (antiatherogenic index)

Row | Compound | % of Fe(II) Chelation (at 100 μM) [1] [%] | IC50 [2] [µM] | inhibition at 300 µM [4] [%] | inhibition in vivo at 84 µmol/kg [5, 9] [%] | inhibition in vivo at 84 µmol/kg [5, 10] [%] | inhibition in vivo at 84 µmol/kg [5, 11] [%] | inhibition in vivo at 300 µmol/kg [6] [%] | IC50 [7] [µM] | IC50 [3] [µM] | further results
1 | Cc1cc(C(C)(C)C)c(O)c(C(C)(C)C)c1 [BHT, butylated hydroxytoluene, reference compound] | 0 | 31 |  |  |  |  |  |  |  | LP % Inhibition at 100 μΜ [3]: 0%
2 | COc1cc(/C=C/C(=O)N2CCSC(c3ccc(-c4ccccc4)cc3)C2)ccc1O (stereo not drawn) [Compound 1, (E)-1-(2-([1,1′-Biphenyl]-4-yl)thiomorpholino)-3-(4-hydroxy-3-methoxyphenyl)prop-2-en-1-one] | 19 | 166 | 22 | 59 | 40 | 83 | ≤ 60 | 68 | 6 | change in vivo at 84 µmol/kg [5, 8]: 84%
3 | O=C(c1cc(O)c(O)c(O)c1)N1CCSC(c2ccc(-c3ccccc3)cc2)C1 (stereo not drawn) [Compound 3, (2-([1,1′-Biphenyl]-4-yl)thiomorpholino)(3,4,5-trihydroxyphenyl)methanone] | 89 | 31 | 10 | 79 | 51 | 86 | ≤ 60 | 4 | 8 | change in vivo at 84 µmol/kg [5, 8]: 49%; % of Fe(II) Chelation at 10 μM ([1]; 10 μM compound): 56%
4 | CC(C)(C)c1cc(/C=C/C(=O)N2CCSC(c3ccc(-c4ccccc4)cc3)C2)cc(C(C)(C)C)c1O (stereo not drawn) [Compound 6, (E)-1-(2-([1.1′-Biphenyl]-4-yl)thiomorpholino)-3-(3,5-ditertbutyl-4-hydroxyphenyl)prop-2-en-1-one] | 0 | 288 | ~45 | 49 | 36 | 65 | 33 | 252 | > 500 | change in vivo at 84 µmol/kg [5, 12]: 43%; % HDL, value marked footnote 2: decrease percentage ([5]; plasma, HDL decrease, not increase): 23 **^,2%
5 | Cc1c(C)c2c(c(C)c1O)CCC(C)(C(=O)N1CCSC(c3ccc(-c4ccccc4)cc3)C1)O2 (stereo not drawn) [Compound 10] | 0 | 78 | ~45 | 23 | 13 | 52 | 43 | 140 | 4 | change in vivo at 84 µmol/kg [5, 8]: 32%; change in vivo at 84 µmol/kg [5, 12]: 77%
6 | Cc1c(C)c2c(c(C)c1O)CCC(C)(C(=O)O)O2 (stereo not drawn) [Trolox, 6-hydroxy-2,5,7,8-tetramethylchroman-2-carboxylic acid, reference compound] | 29 | 33 |  |  |  |  |  |  |  | LP % Inhibition at 100 μΜ [3]: 43%
7 | CC(C)(C)c1cc(/C=C/C(=O)O)cc(C(C)(C)C)c1O [acrylic derivative, (E)-3-(3,5-ditertbutyl-4-hydroxyphenyl)acrylic acid, reference compound] |  | 77 |  |  |  |  |  |  |  | 
8 | O=C1O[C@H]([C@@H](O)CO)C(O)=C1O [ascorbic acid, reference compound] |  | 42 |  |  |  |  |  |  |  | 
9 | O=C(O)/C=C/c1ccccc1 [cinnamic acid, reference compound] |  |  |  |  |  |  |  | > 300 |  | 
10 | O=C(O)c1cc(O)c(O)c(O)c1 [gallic acid, reference compound] | 98 | 14 |  |  |  |  |  |  |  | LP % Inhibition at 100 μΜ [3]: 73%
11 | CC(C)Cc1ccc(C(C)C(=O)O)cc1 (stereo not drawn) [ibuprofen, reference compound] |  |  |  |  |  |  |  | > 300 |  | 
12 | COc1ccc2cc([C@H](C)C(=O)O)ccc2c1 [naproxen, reference compound] |  |  |  |  |  |  |  | 25 |  | 
